Molecular target: PDEδ (Homo sapiens, UniProt O43924)
Test: SPR
Assay type: binding

PDEδ, sequence (O43924 whole entry): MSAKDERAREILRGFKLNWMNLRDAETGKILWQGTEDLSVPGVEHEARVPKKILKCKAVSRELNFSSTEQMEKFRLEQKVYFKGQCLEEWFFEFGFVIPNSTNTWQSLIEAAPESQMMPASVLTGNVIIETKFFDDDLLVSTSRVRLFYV

## O=C(COc1cccc2c1C(=O)N(C1CCC(=O)NC1=O)C2=O)NCCCOCCOCCOCCCNC(=O)c1cc(Oc2ccc(NC(=O)Nc3ccc(Cl)c(C(F)(F)F)c3)cc2)ccn1 (stereo not shown) [PROTAC T-S, 4-(4-(3-(4-chloro-3-(trifluoromethyl)phenyl)ureido)phenoxy)-N-(1-((2-(2,6-dioxopiperidin-3-yl)-1,3-dioxoisoindolin-4-l)oxy)-2-oxo-7,10,13-trioxa-3-azahexadecan-16-yl)picolinamide]
  Kd: 2260 nM
